Data published in patent publication US20230204594A1, “SYSTEMS AND METHODS FOR REAL-TIME CELLULAR DRUG-TARGET ENGAGEMENT” (NERD BIO LLC, priority 2021, published 2023).
Like-named read-outs stand apart in the source and are kept apart here. One block for each compound: values may come before it.

Key:
[1] = target: T1, BCL6 Micro-tagged protein (BCL6-S-tag fusion protein) (Homo sapiens, UniProt P41182); assay: Small molecule target engagement screening on lysates, micro-tagged BCL6 heated at Tmin; format: binding
T1 construct: expressed in transfected cells; host or cells: HEK293, lysate (1% Triton X-100 in TBS)
Description: HEK293 cells were transfected using Lipofectamine 2000 according to manufacturer protocol. Two days after transfection, media was removed and cells lifted by pipetting up and down using 1×TBS. Cells were centrifuged at 400 g for 4 min. The TBS wash was removed and the cells lysed with either 1% Triton X 100 in TBS for MTH1 and BCL6, or 0.5% DDM in TBS for EGFR expressing cells. Cells were lysed at 4° C. on a rotator for 1 hour and cell debris removed by gentle centrifugation for 1 minute at 6000 rpm. Lysates were transferred to a new tube and aliquots that were not used immediately in the assay were frozen at −80° C. for future use.
Small molecule compounds were dissolved in DMSO at 10 mM and serial dilutions in DMSO at 100× concentration were prepared from this stock. Lysates from cells expressing the micro-tagged (S-peptide tagged) protein were diluted with cold 1×TBS at 1/10 and 39.6 ul aliquoted to a PCR plate; […]. The heated sample (30 ul) was added and fluorescence detected using a microplate reader. The plate was read in kinetic mode (excitation=485 nm, emission=520 nm) with the PolarStar Omega 96-well plate reader.
For analysis, the RAW fluorescence signal or fluorescence change per minute was plotted with inhibitor dose on a Semi-Log scale using GraphPad Prism. Nonlinear regression analysis was used for curve fitting to identify EC50 of target engagement or apparent KD.
After 4 minutes incubation the fluorescence detected could be plotted with dose of inhibitor tested on a semi-log scale. Using nonlinear regression analysis and fitting a Sigmoidal dose-response curve (with variable slope) using GraphPad Prism identified an EC50 of Target Engagement. […] The peak fluorescence signal identified the dose of inhibitor that saturates the micro-tag protein target. At concentrations of the inhibitor above this saturating dose there was rapid cleavage of the FRET-labeled substrate resulting in loss of fluorescence signal over time (Relative Light Unit per minute (RLU/min)) and lower fluorescence detected. At concentrations below this saturating dose the micro-tag construct was denatured in the heat challenge and there was less micro-tag available for enzyme complementation resulting in lower fluorescence signal (FIG. 36A). […].

BCL6 = BCL6 (Homo sapiens, UniProt P41182); details: known value, read-out: in vitro IC50, cited from earlier work

binding to the BCL6 micro-tag target ([1]; HEK293 lysates, heated at Tmin, 4 minutes incubation, FIG. 38B): did not bind the target
SMILES: C[C@@H]1C[C@H](C)CN(c2ncc(Cl)c(Nc3ccc4c(c3)cc(OC(C)(C)C(=O)O)c(=O)n4C)n2)C1 [BI-5273]
IC50 (BCL6; inactive structural analog): ~10000 nM

SMILES: CNC(=O)COc1cc2cc(Nc3nc(N4CCC(C(=O)N(C)C)CC4)ncc3Cl)cc(OC)c2n(C)c1=O [BI-3812]
EC50 ([1]; HEK293 lysates, heated at Tmin, fluorescence after 4 minutes incubation, FIG. 38A, read-out: EC50 of target engagement): 0.63 nM | Kd ([1]; Saturation Binding Equation (One-site total), after 15 minutes, FIG. 39C, read-out: Apparent Equilibrium Dissociation Constant (apparent KD)): 1.6 nM | EC50 ([1]; after 15 minutes, FIG. 39B, read-out: EC50 of target engagement after removal of data points beyond the target saturation dose): 0.9 nM | IC50 (BCL6; well-characterized inhibitor): ~3 nM
